Assay: UV absorption (UV/Vis spectrometer, standard USP 197U testing procedures)
Format: physicochemical
Description: UV absorption of glyceryl/acid or glycol/acid compounds and compositions containing the same can be determined by UV absorption assays that are generally known to those of ordinary skill in the art.

Molar Absorptivity (λ max 238 nm) (λ max 238 nm): 12065.7
Molar Absorptivity (λ max 307 nm) (λ max 307 nm): 6126.4
Compound: O=C(OCC(O)CO)c1ccccc1O (centres unmarked) [Glyceryl Mono-Salicylate]

From patent publication US12285509B2, “Glyceryl and glycol acid compounds” (MARY KAY INC., priority 2006, dated 2025)
